In ChEMBL document CHEMBL5143513, “Design, synthesis and biological evaluation of bisindole derivatives as anticancer agents against Tousled-like kinases” (Eur J Med Chem, 2022):
Calls of active or inactive are those of the source. The calls are words filed in the database; no cut-off is given here.

Assays:
[1] = biological target: T1, Serine/threonine-protein kinase tousled-like 2 (Homo sapiens, UniProt Q86UE8); test: Inhibition of full length FLAG/HA/Strep-tagged TLK2 (unknown origin) transfected in HEK293T cells at 50 uM using GST-ASF1 as substrate preincubated for 15 mins followed by substrate addition and measured after 15 mins in presence of ATP by Western blot analysis; details: time 30.0 min
Target sequence in this assay (Q86UE8 whole entry, looked up): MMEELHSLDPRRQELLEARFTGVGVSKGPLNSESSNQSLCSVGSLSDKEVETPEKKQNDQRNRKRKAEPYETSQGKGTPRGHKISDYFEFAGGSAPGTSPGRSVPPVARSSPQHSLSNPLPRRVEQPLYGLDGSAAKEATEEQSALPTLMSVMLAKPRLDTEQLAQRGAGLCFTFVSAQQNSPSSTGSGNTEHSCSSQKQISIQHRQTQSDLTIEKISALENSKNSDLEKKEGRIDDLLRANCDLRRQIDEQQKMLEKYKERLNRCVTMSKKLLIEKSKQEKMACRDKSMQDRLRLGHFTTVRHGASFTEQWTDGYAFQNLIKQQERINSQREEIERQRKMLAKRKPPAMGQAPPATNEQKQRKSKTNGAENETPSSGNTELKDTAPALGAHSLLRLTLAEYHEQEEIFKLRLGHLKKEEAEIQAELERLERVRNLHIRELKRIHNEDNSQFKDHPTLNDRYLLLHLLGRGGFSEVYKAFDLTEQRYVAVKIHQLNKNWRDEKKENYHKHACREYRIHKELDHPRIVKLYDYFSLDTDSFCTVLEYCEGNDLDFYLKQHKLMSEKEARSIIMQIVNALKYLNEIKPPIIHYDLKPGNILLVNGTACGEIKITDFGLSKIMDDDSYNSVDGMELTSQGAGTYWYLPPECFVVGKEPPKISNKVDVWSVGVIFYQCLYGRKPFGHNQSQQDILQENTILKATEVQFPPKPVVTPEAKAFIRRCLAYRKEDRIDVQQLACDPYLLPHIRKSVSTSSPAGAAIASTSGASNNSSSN

[2] = biological target: T1, Serine/threonine-protein kinase tousled-like 2; test: Inhibition of full length FLAG/HA/Strep-tagged TLK2 (unknown origin) transfected in HEK293T cells assessed as reduction in ASF1a phosphorylation at S166 residue at 5 uM by Western blot analysis; format: cell-based
Target sequence in this assay (Q86UE8 whole entry, looked up): as above

[3] = biological target: Histone chaperone ASF1A (Homo sapiens) (UniProt Q9Y294); test: Inhibition of ASF1a phosphorylation at S166 residue in human MDA-MB-231 cells at 10 uM incubated for 4 hrs by Western blot analysis; format: cell-based
MDA-MB-231 [4] = test: Cytotoxicity against human MDA-MB-231 cells assessed as reduction in cell viability at 0.5 uM measured after 72 hrs by MTT assay; format: functional
[5] = Cytotoxicity against human MRC5 cells assessed as reduction in cell viability incubated for 72 hrs by MTT assay; format: toxicity, cell-based
MDA-MB-231 [6] = test: Induction of DNA damage in human MDA-MB-231 cells at 10 uM incubated for 4 hrs by gel electrophoresis method; format: functional, cell-based
MDA-MB-231 [7] = test: Induction of apoptosis in human MDA-MB-231 cells assessed as increase in caspase-3 level at 4 uM incubated for 72 hrs by gel electrophoresis method; format: functional, cell-based
MDA-MB-231 [8] = test: Cytotoxicity against human MDA-MB-231 cells assessed as reduction in cell viability incubated for 72 hrs by MTT assay; format: functional, cell-based; details: MDA-MB-231, 72 h
MDA-MB-231 [9] = test: Induction of apoptosis in human MDA-MB-231 cells assessed as decrease in MCL-1 level at 4 uM incubated for 72 hrs by gel electrophoresis method; format: functional, cell-based
MDA-MB-231 [10] = test: Induction of apoptosis in human MDA-MB-231 cells assessed as decrease in Bcl-xL level at 4 uM incubated for 72 hrs by gel electrophoresis method; format: functional, cell-based
[11] = Cytotoxicity against human IMR-90 cells assessed as reduction in cell viability incubated for 72 hrs by MTT assay; format: toxicity, cell-based
HCT-116 = test: Cytotoxicity against human HCT-116 cells assessed as reduction in cell viability incubated for 72 hrs by MTT assay; format: functional, cell-based; details: HCT-116, 72 h
MDA-MB-231 [12] = test: Induction of apoptosis in human MDA-MB-231 cells assessed as increase in caspase-9 level at 4 uM incubated for 72 hrs by gel electrophoresis method; format: functional, cell-based
[13] = biological target: T1, Serine/threonine-protein kinase tousled-like 2; test: Binding affinity to full length FLAG/HA/Strep-tagged TLK2 (388 to 772 residues) (unknown origin) transfected in HEK293T cells by Alexa Fluor 647 staining based FRET assay; format: cell-based
Target sequence in this assay (Q86UE8 whole entry): as the sequence (Q86UE8 whole entry, looked up) above

MDA-MB-231 [14] = test: Induction of cell cycle arrest in human MDA-MB-231 cells assessed as increase in cells at sub G1 phase at 2 uM measured after 72 hrs by PI staining based flow cytometric analysis (reference value: 0.8%); format: functional
MDA-MB-231 [15] = test: Effect on cell cycle progression in human MDA-MB-231 cells assessed as accumulation of cells at S phase at 2 uM by PI staining based flow cytometric analysis; format: functional
MDA-MB-231 [16] = test: Antiproliferative activity against human MDA-MB-231 cells assessed as increase in cell death rate at 1 uM by trypan blue assay; format: functional, cell-based
MDA-MB-231 [17] = test: Antiproliferative activity against human MDA-MB-231 cells assessed as reduction in cell growth at 0.25 uM by trypan blue assay; format: functional, cell-based
MDA-MB-231 [18] = test: Induction of cell cycle arrest in human MDA-MB-231 cells assessed as increase in cells at sub G1 phase at 4 uM measured after 72 hrs by PI staining based flow cytometric analysis (reference value: 0.8%); format: functional
MDA-MB-231 [19] = test: Antiproliferative activity against human MDA-MB-231 cells assessed as reduction in cell growth at 1 uM by trypan blue assay; format: functional, cell-based
A549 = test: Cytotoxicity against human A549 cells assessed as reduction in cell viability incubated for 72 hrs by MTT assay; format: functional, cell-based; details: A549, 72 h
U2OS [20] = test: Inhibition of DNA replication in PCNA positive human U2OS cells assessed as reduction in EdU level at 2.5 to 20 uM incubated for 4 hrs by immunofluorescence staining based EdU incorporation assay; format: functional, cell-based; details: dose 2.5-20 µM
U2OS [21] = test: Induction of DNA damage in human U2OS cells assessed as increase in CHK2 phosphorylation at T68 residue at 5 to 10 uM incubated for 4 hrs by Western blot analysis; format: functional, cell-based; details: dose 5-10 µM
[22] = biological target: T1, Serine/threonine-protein kinase tousled-like 2; test: Inhibition of full length FLAG/HA/Strep-tagged TLK2 (unknown origin) transfected in HEK293T cells assessed as reduction in TLK mediated ASF1a phosphorylation at 50 uM by Western blot analysis; format: cell-based
Target sequence in this assay (Q86UE8 whole entry, looked up): as above

U2OS [23] = test: Induction of DNA damage in PCNA positive human U2OS cells assessed as increase in H2AX phosphorylation at S139 residue in S phase by measuring fluorescence intensity at 10 uM incubated for 4 hrs by immunofluorescence microscopy; format: functional, cell-based
U2OS [24] = test: Induction of DNA damage in human U2OS cells assessed as increase in CHK1 phosphorylation at S345 residue at 2.5 to 5 uM incubated for 4 hrs by Western blot analysis; format: functional, cell-based; details: dose 2.5-5 µM
U2OS [25] = test: Effect on cell cycle progression in human U2OS cells assessed as accumulation of cells at S phase measured after 8 hrs by PI staining based flow cytometric analysis; format: functional; details: dose 2.5-20 µM, DDE = dose-dependent effect
U2OS [26] = test: Induction of DNA damage in human U2OS cells assessed as increase in RPA2 phosphorylation at S4/S8 residue at 5 to 10 uM incubated for 4 hrs by Western blot analysis; format: functional, cell-based; details: dose 5-10 µM
U2OS [27] = test: Induction of DNA damage in human U2OS cells assessed as increase in KAP1 phosphorylation at S824 residue at 5 to 10 uM incubated for 4 hrs by Western blot analysis; format: functional, cell-based; details: dose 5-10 µM
[28] = biological target: T1, Serine/threonine-protein kinase tousled-like 2; test: Inhibition of full length FLAG/HA/Strep-tagged TLK2 (unknown origin) in human MDA-MB-231 cells assessed as reduction in ASF1 phosphorylation at 16.7 uM measured after 4 hrs by Western blot analysis; format: cell-based
Target sequence in this assay (Q86UE8 whole entry, looked up): as above

[29] = biological target: T1, Serine/threonine-protein kinase tousled-like 2; test: Inhibition of full length FLAG/HA/Strep-tagged TLK2 (unknown origin) in human U2OS cells assessed as ASF1 phosphorylation by measuring decrease in band shift at 16.7 uM measured after 4 hrs by Western blot analysis; format: cell-based
Target sequence in this assay (Q86UE8 whole entry, looked up): as above

U2OS [30] = test: Effect on cell cycle progression in human U2OS cells assessed as accumulation of cells at early stage of S phase measured after 8 hrs by PI staining based flow cytometric analysis; format: functional
[31] = biological target: T1, Serine/threonine-protein kinase tousled-like 2; test: Inhibition of full length FLAG/HA/Strep-tagged TLK2 (unknown origin) in human U2OS cells assessed as reduction in ASF1 phosphorylation at 16.7 uM measured after 4 hrs by Western blot analysis; format: cell-based
Target sequence in this assay (Q86UE8 whole entry, looked up): as above

U2OS [32] = test: Inhibition of DNA replication in PCNA positive human U2OS cells assessed as reduction in EdU level at 50 uM incubated for 4 hrs by immunofluorescence staining based EdU incorporation assay; format: functional, cell-based

Sequence of Histone chaperone ASF1A (Homo sapiens) (Q9Y294 whole entry): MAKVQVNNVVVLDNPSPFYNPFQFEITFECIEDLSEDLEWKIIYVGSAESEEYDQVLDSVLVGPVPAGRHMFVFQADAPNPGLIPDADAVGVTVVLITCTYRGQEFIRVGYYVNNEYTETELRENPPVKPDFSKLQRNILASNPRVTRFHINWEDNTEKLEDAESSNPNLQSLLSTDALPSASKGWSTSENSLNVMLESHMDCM

Row | SMILES | inhibition [2] | inhibition of ASF1a S166 phosphorylation (active/inactive call) [3] | Activity (MDA-MB-231 [4]) [%] | IC50 at 72 h [5] [nM] | IC50 (MDA-MB-231 [8]) [nM] | IC50 at 72 h [11] [nM] | IC50 (HCT-116) [nM] | IC50 (A549) [nM] | also measured
1 | COc1ccc2c(c1)c(C1=C(c3c[nH]c4ccccc34)C(=O)NC1=O)cn2CCCN(C)C |  |  |  |  |  |  |  |  | inhibition [1]: Active
2 | CN1CCCCC1CCO/N=C1/C(=C2/C(=O)Nc3ccc([N+](=O)[O-])cc32)Nc2ccccc21 (centres undefined) | Active | Active | 40 |  |  |  |  |  | 
3 | CN1CCCC1CCO/N=C1/C(=C2/C(=O)Nc3ccccc32)Nc2ccccc21 (centres undefined) | Active | Active | 40 | > 2000 | 250 | > 2000 | 370 | 260 | Activity (MDA-MB-231 [6]): Active; Activity (MDA-MB-231 [7]): Active; Activity (MDA-MB-231 [9]): Active; Activity (MDA-MB-231 [10]): Active; Activity (MDA-MB-231 [12]): Active; IC50 [13]: 18.6 nM; Activity (MDA-MB-231 [14]): 15.4%; Activity (MDA-MB-231 [15]): Active; Activity (MDA-MB-231 [16]): Active; Activity (MDA-MB-231 [17]): Active; Activity (MDA-MB-231 [18]): 25.6%; Activity (MDA-MB-231 [19]): Active
4 | CN1CCC(O/N=C2/C(=C3/C(=O)Nc4ccccc43)Nc3ccccc32)CC1 | Active | Active | 40 | > 2000 | 250 | > 2000 | 390 | 190 | Activity (MDA-MB-231 [6]): Active; IC50 [13]: 33.1 nM; Activity (MDA-MB-231 [15]): Active; Activity (MDA-MB-231 [17]): Active
5 | CN1CCCCC1CCO/N=C1/C(=C2/C(=O)Nc3cc(F)ccc32)Nc2ccccc21 (centres undefined) |  |  | <30 |  |  |  |  |  | 
6 | CN[C@@H]1C[C@H]2O[C@@](C)([C@@H]1OC)n1c3ccccc3c3c4c(c5c6ccccc6n2c5c31)C(=O)NC4 |  |  |  |  |  |  |  |  | inhibition [1]: Active
7 | CN1CCCCC1CCO/N=C1/C(=C2/C(=O)Nc3ccccc32)Nc2ccccc21 (centres undefined) |  |  | <30 | > 2000 | 1170 | > 2000 | 1280 | 1210 | inhibition (U2OS [20]): Active; Activity (U2OS [21]): Active; inhibition [22]: Active; Activity (U2OS [23]): Active; IC50 [13]: 163 nM; Activity (U2OS [24]): Active; Activity (U2OS [25]): Dde; Activity (U2OS [26]): Active; Activity (U2OS [27]): Active; inhibition [28]: Active; inhibition [29]: Active
8 | NC(=O)NO |  |  |  |  |  |  |  |  | Activity (U2OS [30]): Active; inhibition [31]: Active; inhibition (U2OS [32]): Active
9 | CN1CCCCC1CCO/N=C1/C(=C2/C(=O)Nc3ccc(F)cc32)Nc2ccccc21 (centres undefined) | Active | Active | 40 | > 2000 | 530 | > 2000 | 600 | 600 | 
10 | CN1CCCCC1CCO/N=C1/C(=C2/C(=O)Nc3ccccc32)Nc2ccc(F)cc21 (centres undefined) |  |  | <30 |  |  |  |  |  | 
11 | CN1CCCCC1CCO/N=C1/C(=C2/C(=O)Nc3cc(Cl)ccc32)Nc2ccccc21 (centres undefined) |  | Active |  |  |  |  |  |  | 
12 | CN(C)CCCO/N=C1/C(=C2/C(=O)Nc3ccccc32)Nc2ccccc21 | Active | Active | 40 | > 2000 | 440 | > 2000 | 710 | 610 | Activity (MDA-MB-231 [6]): Active; Activity (MDA-MB-231 [15]): Active
13 | CN(C)CCCn1cc(C2=C(c3c[nH]c4ccccc34)C(=O)NC2=O)c2ccccc21 |  |  |  |  |  |  |  |  | inhibition [1]: Active
